According to ChEMBL document CHEMBL1201862, “PubChem BioAssay data set” (2004):
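Cultured in 96-well plates, cells were exposed to test compound for 48 hours across five concentrations. GI50 = concentration required for 50% inhibition of growth.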 Calls of active or inactive are those of the source. Rule as the data show it: active = GI50 up to about 1.1 µM and inactive = higher.

Experiments:
Assay in all cases: NCI anticancer screen, dose series, 48 h
786-0 = system: 786-0
CAKI-1 = system: CAKI-1
CCRF-CEM = system: CCRF-CEM
COLO 205 = system: COLO 205
DU-145 = system: DU-145
EKVX = system: EKVX
HCC 2998 = system: HCC 2998
HL-60 = system: HL-60
HOP-92 = system: HOP-92
Hs-578T = system: Hs-578T
KM12 = system: KM12
MDA-MB-231 = system: MDA-MB-231
OVCAR-4 = system: OVCAR-4
OVCAR-5 = system: OVCAR-5
SF-268 = system: SF-268
SK-MEL-2 = system: SK-MEL-2
SNB-75 = system: SNB-75
T47D = system: T47D
U-251 = system: U-251
Malme-3M = system: Malme-3M

| SMILES | GI50 (786-0) | GI50 (CAKI-1) | GI50 (CCRF-CEM) | GI50 (COLO 205) | GI50 (DU-145) | GI50 (EKVX) | GI50 (HCC 2998) | GI50 (HL-60) | GI50 (HOP-92) | GI50 (Hs-578T) | GI50 (KM12) | GI50 (MDA-MB-231) | GI50 (OVCAR-4) | GI50 (OVCAR-5) | GI50 (SF-268) | GI50 (SK-MEL-2) | GI50 (SNB-75) | GI50 (T47D) | GI50 (U-251) | GI50 (Malme-3M) |
| --- | --- | --- | --- | --- | --- | --- | --- | --- | --- | --- | --- | --- | --- | --- | --- | --- | --- | --- | --- | --- |
| C=CCOC(OCC=C)/C(Br)=C/C | 11.2 µM (inactive) | 16.7 µM (inactive) | 10.3 µM (inactive) | 19.2 µM (inactive) | 55.2 µM (inactive) | 35.9 µM (inactive) | 80.9 µM (inactive) | 41 µM (inactive) | 56.5 µM (inactive) | 26.8 µM (inactive) | > 100 µM (inactive) | > 100 µM (inactive) | 24.5 µM (inactive) | 49.5 µM (inactive) | 28.8 µM (inactive) | 68.2 µM (inactive) | > 100 µM (inactive) | 31.8 µM (inactive) | 59.2 µM (inactive) |  |
| CS(=N)(=O)CCC(N)P(=O)(O)O (centres undefined) | > 100 µM (inactive) | > 100 µM (inactive) |  | > 100 µM (inactive) | > 100 µM (inactive) | > 100 µM (inactive) | > 100 µM (inactive) | > 100 µM (inactive) | > 100 µM (inactive) | > 100 µM (inactive) | > 100 µM (inactive) | > 100 µM (inactive) | > 100 µM (inactive) | > 100 µM (inactive) | > 100 µM (inactive) | > 100 µM (inactive) |  | > 100 µM (inactive) | > 100 µM (inactive) | > 100 µM (inactive) |
| O=C(/C=C/c1ccc(O)c(O)c1)OCc1ccccc1 [BENZYL CAFFEATE] | 14.7 µM (inactive) | 27 µM (inactive) |  | 22.4 µM (inactive) | 15.1 µM (inactive) | 29.7 µM (inactive) | 36.6 µM (inactive) | 0.938 µM (active) | 16.2 µM (inactive) | 9.71 µM (inactive) | 8.45 µM (inactive) | 21.6 µM (inactive) | 8.97 µM (inactive) | 29.5 µM (inactive) | 10.9 µM (inactive) | 13.4 µM (inactive) |  | 12.1 µM (inactive) | 14.5 µM (inactive) | 11.8 µM (inactive) |
| O=C1OCC(CN2CCC(n3c(=O)[nH]c4ccccc43)CC2)=C1c1ccccc1 | 33.4 µM (inactive) | 22.9 µM (inactive) | 13.7 µM (inactive) | 14.6 µM (inactive) | 24.8 µM (inactive) | 25.9 µM (inactive) | 23.8 µM (inactive) | 15.5 µM (inactive) |  | 30 µM (inactive) | 16.3 µM (inactive) | 26.4 µM (inactive) | 18.7 µM (inactive) | 41 µM (inactive) | 28.1 µM (inactive) | 19.8 µM (inactive) | 28.2 µM (inactive) | 6.03 µM (inactive) | 35.5 µM (inactive) | 22.8 µM (inactive) |
| COc1cc2c(cc1O)C(c1cc(O)c(O)c(OC)c1)C(O)(C(=O)O)C(CO)C2O (centres undefined) | 16.1 µM (inactive) | > 100 µM (inactive) | 2.62 µM (inactive) | > 100 µM (inactive) | > 100 µM (inactive) | 20.7 µM (inactive) | > 100 µM (inactive) |  | > 100 µM (inactive) | > 100 µM (inactive) | > 100 µM (inactive) | 40.8 µM (inactive) | > 100 µM (inactive) | > 100 µM (inactive) | > 100 µM (inactive) | > 100 µM (inactive) | > 100 µM (inactive) | > 100 µM (inactive) | > 100 µM (inactive) | > 100 µM (inactive) |
| c1ccc([I+]c2ccccc2)cc1 | > 100 µM (inactive) | > 100 µM (inactive) | > 100 µM (inactive) | > 100 µM (inactive) | > 100 µM (inactive) | > 100 µM (inactive) | > 100 µM (inactive) | > 100 µM (inactive) | 70 µM (inactive) | > 100 µM (inactive) | > 100 µM (inactive) | > 100 µM (inactive) | > 100 µM (inactive) | > 100 µM (inactive) | > 100 µM (inactive) | > 100 µM (inactive) |  | > 100 µM (inactive) | > 100 µM (inactive) | > 100 µM (inactive) |
| O=C([C@H](O)[C@@H](O)c1ccc(Br)cc1)C12CC3CC(CC(C3)C1)C2 | 9.53 µM (inactive) | 14.9 µM (inactive) |  | > 20.2 µM (inactive) | 9.68 µM (inactive) | 32.4 µM (inactive) | > 21.3 µM (inactive) |  |  | > 39.1 µM (inactive) | 13.8 µM (inactive) | 10.5 µM (inactive) | 19.3 µM (inactive) | 39.4 µM (inactive) | 11.6 µM (inactive) | 16.3 µM (inactive) | 2.93 µM (inactive) | 6.56 µM (inactive) | 7.18 µM (inactive) | 13.9 µM (inactive) |
